Test systems include MDA-MB-468 breast; 786-0 renal; SNB-19 CNS; ACHN renal; DU-145 prostate; EKVX NSCLC; HL-60(TB) leukemia; BT-549 breast; TK-10 renal; OVCAR-4 ovarian; SK-MEL-2 melanoma; HCT-15 colon; OVCAR-3 ovarian; MCF7 breast; CCRF-CEM leukemia; MOLT-4 leukemia; NCI-H23 lung; A498 renal; RXF 393 renal; RPMI-8226 leukemia; HCC-2998 colon.
Holding throughout (assay): inhibition of tumour cell growth, NCI panel, 48 h

In PubChem BioAssay (NCI) one finds GI50 and TGI data, which are given here for 34 molecules.

Where “and” joins values, the source holds several entries; their conditions need not be identical. Equal values may be shown once.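 Test compounds were applied to cells in 96-well plates for 48 hours at 5 doses. GI50 is the concentration that inhibits growth by half. TGI is the concentration that stops growth completely.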

As for `COc1cccc(C2C(C#N)=C(N)Oc3cc(OCCCCCC[P+](c4ccccc4)(c4ccccc4)c4ccccc4)ccc32)c1` (configuration not stated), in the experiment with MDA-MB-468 breast, the GI50 was 222 nM and the TGI turned out to be 611 nM.
In the same order, the values of `COc1ccc(C(=O)c2ccccc2)c(O)c1` are 40000 nM and over 100000 nM.
The matching figures for `COC(=O)N[C@@H](C)CNc1nccc(-c2cn(C(C)C)nc2-c2cc(Cl)cc(NS(C)(=O)=O)c2F)n1`: 24800 nM and over 100000 nM.
On to `CCOC(=O)/C=C/c1ccc([N+](=O)[O-])o1`, for which, in the experiment with MDA-MB-468 breast, the GI50 was 3760 nM and the TGI came to 17500 nM.
The matching figures for `CN(C)CCN=c1nc2c(c(N)n1-c1ccccc1)c(=S)n(-c1ccccc1)c(=S)n2-c1ccccc1`: 1360 nM and 3020 nM.
In the same order, the values of `Fc1ccc(-c2ncn(C3CCNCC3)c2-c2ccnc(Oc3ccc(Cl)cc3)n2)cc1` are 1780 nM and 5360 nM.
Consider `COc1ccc(C2C3=C(COC3=O)Oc3cc4c(cc32)OCO4)cc1OC` (configuration not stated), for which, in the experiment on MDA-MB-468 breast, the GI50 was 4700 nM and the TGI is over 100000 nM.
In the same order, the values of `N#C/C(=C/C=C/c1cccc(Cl)c1)S(=O)c1ccccc1` (configuration not stated) are 258 nM and 758 nM.
Regarding `O=C(O)C(Cc1ccccc1)N1C(=O)/C(=C/C(Cl)=C/c2ccc([N+](=O)[O-])cc2)SC1=S` (configuration not stated), in the experiment with MDA-MB-468 breast, the GI50 was 1390 nM and the TGI was found to be 3280 nM.
In the same order, the values of `CSCc1ncc(-c2ccc(C(F)(F)F)cc2)c(NC2CCCCCC2)n1` are over 10000 nM and over 10000 nM.
Turning to `COc1ccc(C2=NNC(c3sc(Cl)nc3Cl)C2)cc1` (configuration not stated), in the experiment on MDA-MB-468 breast, the GI50 is 2600 nM and the TGI came out at 8190 nM.
In the same order, the values of `CCOC(=O)c1sc(NC(=O)COc2ccc(/C=C3\CCc4cc(OC)ccc4C3=O)cc2)nc1C` are 1730 nM and 7200 nM.
In the same order, the values of `CCCCS(=O)(=O)c1cc(Nc2ccc(O)c3c2C(=O)c2ccccc2C3=O)ccc1C` are 88300 nM and over 100000 nM.
For the molecule `CCC(=C(c1ccc(OCCN2CCCCCC2)cc1)c1ccc(OCCN2CCCCCC2)cc1)c1ccc(Cl)cc1`, in the experiment on MDA-MB-468 breast, the GI50 is 656 nM and the TGI came to 1490 nM.
With `Cc1cc(C)c(-c2c(O)c(Br)c(-c3c(C)cc(C)c(Br)c3C)c(O)c2Br)c(C)c1Br`, in the experiment on MDA-MB-468 breast, the GI50 is 2830 nM and the TGI was determined as 11100 nM.
On to `C=C1C(=O)O[C@@H]2C[C@@H](C)[C@@H]3C=CC(=O)[C@@]3(C)[C@@H](OC(=O)CCCC(=O)O[C@H]3[C@@H]4C(=C)C(=O)O[C@@H]4C[C@@H](C)[C@@H]4C=CC(=O)[C@]43C)[C@H]12`, for which, in the experiment with MDA-MB-468 breast, the GI50 is 14.3 nM and the TGI turned out to be 32.8 nM.
As for `Cn1cc(-c2csc(-c3ccc(Cl)cc3)n2)c2cccnc21`, in the experiment on MDA-MB-468 breast, the GI50 was 10500 nM and the TGI amounted to 31100 nM.
The matching figures for `CCOc1ccc2cc(-c3nn(CC4CCN(C)CC4)c4ncnc(N)c34)ccc2c1`: 14500 nM and 32200 nM.
The matching figures for `O=C(NCc1cn(Cc2cccc(Oc3ccccc3)c2)nn1)c1cccnc1NCc1ccc(Cl)cc1`: 3440 nM and over 100000 nM.
The matching figures for `COc1cc(N)c(Cl)cc1C(=O)N[C@@H]1CCN(CCCOc2ccc(F)cc2)C[C@@H]1OC`: 89400 nM and over 100000 nM.
On to `CCS(=O)(=O)c1cccc(-c2cc(C(=O)NC3CCN(C)CC3)c(C)c3[nH]c4ncc(C)cc4c23)c1`, for which, in the experiment on MDA-MB-468 breast, the GI50 was 192 nM and 86.9 nM; the TGI was 2690 nM and 470 nM.
Regarding `CN(CCOc1ccc(NS(C)(=O)=O)cc1)CCc1ccc(NS(C)(=O)=O)cc1`, in the experiment with MDA-MB-468 breast, the GI50 is over 100000 nM and the TGI is over 100000 nM.
With `COc1cc(C2CC(c3ccc(Cl)cc3)=NN2C(C)=O)ccc1Oc1ccnc2cc(Cl)ccc12` (configuration not stated), in the experiment with MDA-MB-468 breast, the GI50 is 4220 nM and the TGI was over 100000 nM.
Take `COc1ccc(N=c2nc3sc4cc(Cl)ccc4n3c(N)c2C#N)cc1`: in the experiment with MDA-MB-468 breast, the GI50 is 1110 nM and the TGI came to 19700 nM.
Consider `COc1ccc2nc(Nc3cccc(NC(=O)c4ccc(CN5CCCN(C)CC5)c(C(F)(F)F)c4)c3)ccc2c1`, for which the GI50 in the experiment on 786-0 renal was 169 nM; in the experiment on SNB-19 CNS, 173 nM; in the experiment with ACHN renal, 171 nM; in the experiment with DU-145 prostate, 171 nM; in the experiment with EKVX NSCLC, 167 nM; in the experiment on HL-60(TB) leukemia, 189 nM. The GI50 with BT-549 breast was 160 nM; with MDA-MB-468 breast, 125 nM; with TK-10 renal, 179 nM; with OVCAR-4 ovarian, 171 nM; in the experiment on SK-MEL-2 melanoma it was 175 nM; in the experiment on HCT-15 colon it was 51.1 nM. Besides, the GI50 is 177 nM with OVCAR-3 ovarian; 121 nM with MCF7 breast; 173 nM in the experiment with CCRF-CEM leukemia; 102 nM in the experiment on MOLT-4 leukemia; 148 nM in the experiment on NCI-H23 lung; 177 nM in the experiment on A498 renal. The figures for the GI50 in the experiment on RXF 393 renal, in the experiment on RPMI-8226 leukemia and in the experiment with HCC-2998 colon were 134 nM, 176 nM and 175 nM, respectively. The TGI with 786-0 renal was 309 nM; with SNB-19 CNS it was 313 nM; with ACHN renal, 308 nM; with DU-145 prostate, 316 nM; in the experiment with EKVX NSCLC it was 307 nM; in the experiment with HL-60(TB) leukemia, 438 nM. Further, the TGI in the experiment with BT-549 breast turned out to be 297 nM; in the experiment on MDA-MB-468 breast, 256 nM; in the experiment with TK-10 renal it was 318 nM; with OVCAR-4 ovarian it was 340 nM; in the experiment on SK-MEL-2 melanoma, 315 nM; in the experiment with HCT-15 colon, 170 nM. For the same molecule, the TGI with OVCAR-3 ovarian is 334 nM; in the experiment on MCF7 breast, 261 nM; with CCRF-CEM leukemia it was 531 nM; in the experiment with MOLT-4 leukemia, 352 nM; in the experiment with NCI-H23 lung it was 282 nM; with A498 renal it was 325 nM. In addition, the TGI came to 267 nM in the experiment with RXF 393 renal, 456 nM in the experiment on RPMI-8226 leukemia and 313 nM with HCC-2998 colon.
On to `C/C(=N\NC(=S)N1CCCC1)c1ccccn1`, for which, in the experiment on MDA-MB-468 breast, the GI50 was under 10 nM and the TGI was determined as 80.1 nM.
The matching figures for `COc1ccc2c(c1)[n+](=O)c(/C=C/C(=O)c1cc(OC)c(OC)c(OC)c1)c(C)n2[O-]`: 3160 nM and 18000 nM.
In the same order, the values of `CCCCC[C@H]1C/C=C2/C(=O)C=C[C@@H]2C/C=C\CCCC(=O)O1` are 134 nM and 577 nM.
The matching figures for `COc1ccc(CN2c3ccccc3Sc3ccccc32)cc1O`: 531 nM and 12300 nM.
As for `CC(=O)c1nc(-c2ccc(C[C@@H](CNC(=O)CN(C)C)NC(=O)c3ccc(OC(C)C)c(Cl)c3)cc2)cn1C`, in the experiment with MDA-MB-468 breast, the GI50 is 39.9 nM and the TGI amounted to 14300 nM.
`COc1ccc(/C=C(\C#N)c2cc(OC)c(OC)c(OC)c2)cc1`: in the experiment with MDA-MB-468 breast, the GI50 was 22.2 nM and the TGI was 2520 nM.
Regarding `CN(Cc1cnc2nc(N)nc(N)c2n1)c1c(Cl)cc(C(=O)NC(CCC(=O)O)C(=O)O)cc1Cl` (configuration not stated), the GI50 in the experiment on MDA-MB-468 breast was under 21.1 nM.
Turning to `CC(C)(O)c1cc(Nc2cc(Oc3cn(C4CC4)nc3C3CCOCC3)ccn2)ccn1`, in the experiment on MDA-MB-468 breast, the GI50 is 30600 nM and the TGI was over 100000 nM.
In the same order, the values of `CCN(CC)c1ccc(/C=N/N=C(N)N)cc1` are 1880 nM and 6610 nM.
